Results reported in patent US20050176812A1, “Method of treating cancer” (priority 2003, published 2005).

What was measured:
[1] = stability of discodermolide infusion solution; assay type: physicochemical; details: infusion concentrate mixed with diluent; infusion solution 0.1-2.0 mg/mL, 0.1-1.5 mg/mL, 0.5-8.0 mg/mL or 0.77 mg/mL
Description: The amount of diluent used in admixture with the infusion concentrate to form an infusion solution may be chosen so as to obtain a desired concentration of discodermolide in the infusion solution. The amount of diluent used is also chosen so that the solution is stable long enough to be administered. Concentration of infusion solutions are 0.1-2.0 mg/mL, or 0.1-1.5 mg/mL or preferably 0.5-8.0 mg/mL or 0.77 mg/mL. Such solutions are found to be stable for up to 8 hours.

[2] = precipitation on direct i.v. infusion followed by normal saline flush; assay type: physicochemical; details: 0.77 mg/mL in 40% propylene glycol, 10% ethanol, 50% normal saline; direct i.v. infusion into the vein followed by normal saline flush
Description: Preferably the infusion solution of the present invention is prepared by mixing the infusion concentrate with a diluent, such as 16.3% W/v ethanol in saline in a suitable container. A preferred formulation comprises 1 mL of 2 mg/mL infusion concentrate diluted with 1.6 mL of 16.3% w/v ethanol in saline to yield an infusion solution containing 0.77 mg/mL discodermolide in 40% propylene glycol, 10% ethanol and 50% normal saline. This solution is administered via iv infusion, or push into Y tubing containing a 0.9% normal saline drip, directly into the vein and the drug solution residue in the tubing will be flushed with normal saline. The volume of discodermolide solution given via i.v. push will vary from 0.3 mL (at the starting does of 0.2 mg or 0.13 mg/m^2) to 26 mL (for a dose of 20 mg or 11.43 mg/m^2) or 43 mL (for a dose of 33 mg or 19.2 mg/m^2).

C=C/C=C\[C@H](C)[C@H](OC(N)=O)[C@@H](C)[C@H](O)[C@@H](C)C/C(C)=C\[C@H](C)[C@@H](O)[C@@H](C)/C=C\[C@@H](O)C[C@@H]1OC(=O)[C@H](C)[C@@H](O)[C@H]1C [discodermolide]
stability of infusion solution (time stable) [1]: up to 8 hours | precipitation of discodermolide [2]: will not cause any precipitation
